In patent publication US9969775B2, “CGRP antagonist peptides” (Ferring B.V., priority 2015, dated 2018):
pIC50: −log10 of the molar value. Numbered stars: 1 amine (or outer) side, 2 acyl side, 3 side chain; on linkers, the order of the positions; unused ones are H or OH. Bridge positions count the residues as written; N and C are the ends. Square brackets hold non-standard residues; d marks the D form. Side chains are listed from the residue outwards. Peptide text beside a SMILES is read from it. * marks the point of attachment. X5 = O=C([C@H](Cc1ccc(CO)cc1)N[*:1])[*:2]; Imidazole4carbonyl = O=C(c1cnc[nH]1)*; Picolinoyl(5-F) = O=C(c1ccc(F)cn1)*; Orn(iPr) = CC(C)NCCC[C@H](N)C(=O)O; 3Pal = N[C@@H](Cc1cccnc1)C(=O)O; Picolinoyl = O=C(c1ccccn1)*; Dap = NC[C@H](N)C(=O)O; AEEA = NCCOCCOCC(=O)O; X6 = O=C(c1ccncn1)*

Key:
[1] = molecular target: T1, hAM2 receptor (CALCRL:RAMP3) (Homo sapiens, UniProt O60896+Q16602); assay: AM2 receptor antagonist activity measured by cAMP assay (HTRF); type: cell-based; conditions: for Emax: % MPE: percent of the maximal possible effect, read-out: hAM2-R Efficacy Antag (%) Ave; for Emax / pIC50: agonist human adrenomedullin; for pIC50: GeneBLAzer CALCRL:RAMP3-CRE-bla Freestyle 293F cells, read-out: hAM2-R IC50 Ave; for selectivity ratio CGRP/AM2: selectivity ratio for hCGRP over hAM2, calculated from the IC50 values
T1 construct: expressed in transfected cells; host or cells: GeneBLAzer CALCRL:RAMP3-CRE-bla Freestyle 293F

[2] = molecular target: T2, hCGRP receptor (CALCRL:RAMP1) (Homo sapiens, UniProt O60894+Q16602); assay: CGRP receptor antagonist activity measured by cAMP assay (HTRF); type: cell-based; conditions: agonist human α-CGRP; for Emax: % MPE: percent of the maximal possible effect, read-out: hCGRP-R Efficacy Antag (%) Ave; for pIC50: GeneBLAzer CALCRL:RAMP1-CRE-bla Freestyle 293F cells, 30 minutes, read-out: hCGRP-R IC50 Ave
T2 construct: host or cells: GeneBLAzer CALCRL:RAMP1-CRE-bla Freestyle 293F
T2 sequence (Q16602 23-461): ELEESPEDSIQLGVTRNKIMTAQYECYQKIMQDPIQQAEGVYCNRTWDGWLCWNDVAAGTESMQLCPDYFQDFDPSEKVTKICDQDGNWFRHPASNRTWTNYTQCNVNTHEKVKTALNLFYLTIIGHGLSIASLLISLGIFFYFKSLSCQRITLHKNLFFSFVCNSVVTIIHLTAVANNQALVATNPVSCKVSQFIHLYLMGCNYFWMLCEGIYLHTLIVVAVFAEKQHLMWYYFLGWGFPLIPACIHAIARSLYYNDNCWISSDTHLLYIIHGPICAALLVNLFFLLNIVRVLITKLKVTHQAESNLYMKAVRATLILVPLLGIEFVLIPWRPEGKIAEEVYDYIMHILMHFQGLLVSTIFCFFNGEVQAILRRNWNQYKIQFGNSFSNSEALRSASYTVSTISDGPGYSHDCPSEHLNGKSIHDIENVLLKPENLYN
T2 sequence (O60894 27-148): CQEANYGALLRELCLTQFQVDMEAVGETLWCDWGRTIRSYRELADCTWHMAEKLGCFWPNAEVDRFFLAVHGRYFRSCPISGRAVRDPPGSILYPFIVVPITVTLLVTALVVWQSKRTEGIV

T1 sequence (Q16602 23-461): as the sequence (Q16602 23-461) above
T1 sequence (O60896 24-148): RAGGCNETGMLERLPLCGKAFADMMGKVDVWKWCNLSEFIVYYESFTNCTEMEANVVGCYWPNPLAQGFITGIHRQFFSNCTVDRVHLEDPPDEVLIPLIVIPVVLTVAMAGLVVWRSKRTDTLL

Compound | Emax [1] | pIC50 [1] | selectivity ratio CGRP/AM2 [1] | Emax [2] | pIC50 [2]
CC(C)NCCC[C@@H]1NC(=O)[C@@H](NC(=O)[C@H](Cc2ccc(O)cc2)NC(=O)[C@H](NC(=O)c2ccc(F)cn2)C(C)C)CSSC[C@@H](C(=O)N[C@@H](Cc2cccnc2)C(N)=O)NC(=O)[C@H](Cc2ccc(CO)cc2)NC(=O)[C@@H]2CCCN2C(=O)CNC(=O)[C@H](C(C)C)NC(=O)[C@H](CC(=O)O)NC1=O [Compound 61, Picolinoyl(5-F)-D-Val-Tyr-c(Cys-Orn(iPr)-Asp-Val-Gly-Pro-Phe(4-CH2OH)-Cys)-3Pal-NH2] ({Picolinoyl(5-F)}-[dV]YC[Orn(iPr)]DVGP[X5]C[3Pal]-NH2; disulfide 3-10) | 100% | 7.05 | 934 | 100% | 10.00
CC(C)[C@@H]1NC(=O)[C@H](CC(=O)O)NC(=O)[C@H](CCCNC(=N)N)NC(=O)[C@@H](NC(=O)[C@H](Cc2ccc(O)cc2)NC(=O)[C@H](NC(=O)c2ccncn2)C(C)C)CSSC[C@@H](C(=O)N[C@@H](Cc2cccnc2)C(N)=O)NC(=O)[C@H](Cc2ccccc2)NC(=O)[C@@H]2CCCN2C(=O)CNC1=O [Compound 16] (X6-[dV]YCRDVGPFC[3Pal]-NH2; disulfide 3-10) | 101% | 8.17 | 93 | 100% | 10.15
CC(C)[C@@H]1NC(=O)[C@H](CC(=O)O)NC(=O)[C@H](CNC(=O)COCCOCCNC(=O)COCCOCCN)NC(=O)[C@@H](NC(=O)[C@H](Cc2ccc(O)cc2)NC(=O)[C@H](NC(=O)c2ccccn2)C(C)C)CSSC[C@@H](C(=O)N[C@@H](Cc2cccnc2)C(N)=O)NC(=O)[C@H](Cc2ccccc2)NC(=O)[C@@H]2CCCN2C(=O)CNC1=O [Compound 10] (Picolinoyl-[dV]YC[Dap]([AEEA-AEEA])DVGPFC[3Pal]-NH2; disulfide 3-10) | 107% |  |  | 100% | 
CC(C)[C@@H]1NC(=O)[C@H](CC(=O)O)NC(=O)[C@H](CCCNC(=N)N)NC(=O)[C@@H](NC(=O)[C@H](Cc2ccc(O)cc2)NC(=O)[C@H](NC(=O)c2cnc[nH]2)C(C)C)CSSC[C@@H](C(=O)N[C@@H](Cc2cccnc2)C(N)=O)NC(=O)[C@H](Cc2ccccc2)NC(=O)[C@@H]2CCCN2C(=O)CNC1=O [Compound 47] (Imidazole4carbonyl-[dV]YCRDVGPFC[3Pal]-NH2; disulfide 3-10) |  | 6.63 |  |  | 9.80
